Reference: patent publication US20250388565A1, “ESTROGEN RECEPTOR ALPHA DEGRADERS AND METHODS OF USE THEREOF” (Relay Therapeutics, Inc., priority 2022, published 2025)

Biological target: T1, ERα protein (HiBiT-tagged) in ESR1_HiBiT KI MCF7 cells (Homo sapiens, UniProt P03372)
T1 sequence (P03372 1-595): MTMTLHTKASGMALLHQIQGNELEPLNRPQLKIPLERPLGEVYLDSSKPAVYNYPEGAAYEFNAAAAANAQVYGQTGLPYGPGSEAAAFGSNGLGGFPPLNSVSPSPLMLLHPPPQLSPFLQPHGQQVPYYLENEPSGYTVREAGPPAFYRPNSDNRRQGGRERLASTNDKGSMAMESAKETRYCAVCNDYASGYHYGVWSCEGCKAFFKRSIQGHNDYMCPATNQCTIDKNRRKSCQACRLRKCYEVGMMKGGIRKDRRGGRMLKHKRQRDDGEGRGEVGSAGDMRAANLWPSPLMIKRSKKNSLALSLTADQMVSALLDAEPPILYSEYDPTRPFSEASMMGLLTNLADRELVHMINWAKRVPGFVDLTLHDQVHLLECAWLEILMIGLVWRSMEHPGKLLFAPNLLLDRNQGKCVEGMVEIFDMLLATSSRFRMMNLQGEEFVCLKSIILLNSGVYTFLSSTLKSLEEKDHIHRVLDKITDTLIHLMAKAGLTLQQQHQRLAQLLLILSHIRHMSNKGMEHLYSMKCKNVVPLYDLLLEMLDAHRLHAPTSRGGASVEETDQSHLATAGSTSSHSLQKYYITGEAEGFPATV
Experiment: Nano Glo HiBiT Lytic Degradation Assay
Format: cell-based
Details: 6 hours with compound, 14-point dose response 1:3, bell-shape curve fit, half-maximal effect of first Hill model, read-out: MCF7 ESR1 HiBiT - (DC50)
Method in brief: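 HiBiT-tagged endogenous ERα remaining in MCF7 knock-in cells was quantified by lytic luminescence after a 6 h treatment. DC50 values derive from a bell-shaped curve, taken at the first Hill component's half-maximal effect.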

Question: How did the DC50 turn out when Cc1cc(F)c([C@@H]2OCc3cc(O)ccc3[C@@H]2c2ccc(N3CCC(CN4CCN(c5ccc6c(c5)CN([C@H]5CCC(=O)NC5=O)C6=O)CC4)CC3)cc2)cc1F [Compound I-370, (S)-3-(5-(4-((1-(4-((3R,4S)-3-(2,5-difluoro-4-methylphenyl)-7-hydroxyisochroman-4-yl)phenyl)piperidin-4-yl)methyl)piperazin-1-yl)-1-oxoisoindolin-2-yl)piperidine-2,6-dione] was run?
Answer: 3300 nM

Question: For Cc1cc(F)ccc1[C@H]1OCc2cc(O)ccc2[C@H]1c1ccc(N2CCC(CN3CCN(c4ccc5c(c4)CN([C@H]4CCC(=O)NC4=O)C5=O)CC3)CC2)cc1 [Compound I-371, (S)-3-(5-(4-((1-(4-((3S,4R)-3-(4-fluoro-2-methylphenyl)-7-hydroxyisochroman-4-yl)phenyl)piperidin-4-yl)methyl)piperazin-1-yl)-1-oxoisoindolin-2-yl)piperidine-2,6-dione], which DC50 is on record?
Answer: 0.17 nM

Question: Which DC50 does the source give for Cc1cc(F)ccc1[C@@H]1OCc2cc(O)ccc2[C@@H]1c1ccc(N2CCC(CN3CCN(c4ccc5c(c4)CN([C@H]4CCC(=O)NC4=O)C5=O)CC3)CC2)cc1 [Compound I-372, (S)-3-(5-(4-((1-(4-((3R,4S)-3-(4-fluoro-2-methylphenyl)-7-hydroxyisochroman-4-yl)phenyl)piperidin-4-yl)methyl)piperazin-1-yl)-1-oxoisoindolin-2-yl)piperidine-2,6-dione] here?
Answer: 27 nM

Question: How did the DC50 turn out when COc1cccc([C@H]2OCc3cc(O)ccc3[C@H]2c2ccc(N3CCC(CN4CCN(c5ccc6c(c5)CN([C@H]5CCC(=O)NC5=O)C6=O)CC4)CC3)cc2)c1 [Compound I-373, (S)-3-(5-(4-((1-(4-((3S,4R)-7-hydroxy-3-(3-methoxyphenyl)isochroman-4-yl)phenyl)piperidin-4-yl)methyl)piperazin-1-yl)-1-oxoisoindolin-2-yl)piperidine-2,6-dione] was run?
Answer: 0.78 nM

Question: With COc1cccc([C@@H]2OCc3cc(O)ccc3[C@@H]2c2ccc(N3CCC(CN4CCN(c5ccc6c(c5)CN([C@H]5CCC(=O)NC5=O)C6=O)CC4)CC3)cc2)c1 [Compound I-374, (S)-3-(5-(4-((1-(4-((3R,4S)-7-hydroxy-3-(3-methoxyphenyl)isochroman-4-yl)phenyl)piperidin-4-yl)methyl)piperazin-1-yl)-1-oxoisoindolin-2-yl)piperidine-2,6-dione] as the compound, how does the DC50 read?
Answer: 8 nM

Question: How did the DC50 turn out when Cc1cc([C@H]2OCc3cc(O)ccc3[C@H]2c2ccc(N3CCC(CN4CCN(c5ccc6c(c5)CN([C@H]5CCC(=O)NC5=O)C6=O)CC4)CC3)cc2)ccc1F [Compound I-375, (S)-3-(5-(4-((1-(4-((3S,4R)-3-(4-fluoro-3-methylphenyl)-7-hydroxyisochroman-4-yl)phenyl)piperidin-4-yl)methyl)piperazin-1-yl)-1-oxoisoindolin-2-yl)piperidine-2,6-dione] was run?
Answer: 0.89 nM

Question: How did the DC50 turn out when Cc1cc([C@@H]2OCc3cc(O)ccc3[C@@H]2c2ccc(N3CCC(CN4CCN(c5ccc6c(c5)CN([C@H]5CCC(=O)NC5=O)C6=O)CC4)CC3)cc2)ccc1F [Compound I-376, (S)-3-(5-(4-((1-(4-((3R,4S)-3-(4-fluoro-3-methylphenyl)-7-hydroxyisochroman-4-yl)phenyl)piperidin-4-yl)methyl)piperazin-1-yl)-1-oxoisoindolin-2-yl)piperidine-2,6-dione] was run?
Answer: ≥ 10000 nM

Question: Which DC50 does the source give for Cc1cc(F)cc([C@H]2OCc3cc(O)ccc3[C@H]2c2ccc(N3CCC(CN4CCN(c5ccc6c(c5)CN([C@H]5CCC(=O)NC5=O)C6=O)CC4)CC3)cc2)c1 [Compound I-377, (S)-3-(5-(4-((1-(4-((3S,4R)-3-(3-fluoro-5-methylphenyl)-7-hydroxyisochroman-4-yl)phenyl)piperidin-4-yl)methyl)piperazin-1-yl)-1-oxoisoindolin-2-yl)piperidine-2,6-dione] here?
Answer: 0.62 nM
